Like-named read-outs stand apart in the source and are kept apart here.
Experiments:
[1] = test system: HIV-1 (IIIB) in MT-4 cells; assay: microbe, parasite or virus in culture; assay type: cell-based
[2] = target: recombinant human BACE-1 (Homo sapiens (Human), UniProt P56817); assay: Beta-secretase (BACE) inhibition assay, fluorogenic enzymatic assay; assay type: biochemical
Experimental: Beta-Secretase (BACE) Inhibition Assay
Inhibitory potency against β-secretase (BACE) was measured using an enzymatic assay with a fluorogenic readout. 50 nM of recombinant human BACE-1 (R&D Systems) and test compound at one of various concentrations were added to a reaction buffer containing 20 mM sodium acetate at pH 4.8, with 0.06% Triton X-100, and 1% DMSO. […] The total volume of the assay solution was 100 μL. […] The slopes of the progress curves were the measure of reaction rates. Reaction rates were plotted as a function of inhibitor concentration, and the data were fit with a four-parameter logistic fit using Graphpad PRISM software to yield IC50 values.

[3] = Liver microsomal stability, human liver microsomes; details: human
Experimental: Liver Microsomal Stability Protocol
Test compounds and one control compound (verapamil) were tested in 3 different species in duplicate sets.
Test compound concentration: 1 uM; Protein concentration: 0.5 mg/mL (for dog, rat, and human liver microsomes); Cofactor: NADPH-Regenerating system (NRS) solution; Time-points: 2, 12, 25, 45, and 65 minutes.
Reaction Composition (in Each Incubation Well) Contains:
At an incubation temperature of 37° C., the reaction was started with addition of NADPH Regeneration System, at each time point, 25 uL of the reaction mixture was removed and added to a plate with 225 uL quenching solution (50% MeOH, 25% ACN, 25% H2O, and 200 nM labetalol as internal standard). After plates were vortexed, they were centrifuged for 30 minutes to remove proteins. About 100 μL supernatant was removed to a new plate and diluted with 150 μL water. About 20 μL of the mixture was injected into LC/MS/MS system to monitor the compound's response. In vitro measured t1/2 was used to calculate Clint values.

[4] = MT-4 cells, HIV-1, read-out: MT4 EC50
[5] = Human immunodeficiency virus 1, IIIB, MT4, MT-4 cells, HIV-1, read-out: MT4 EC50

Chain of recombinant human BACE-1 (P56817 46-501): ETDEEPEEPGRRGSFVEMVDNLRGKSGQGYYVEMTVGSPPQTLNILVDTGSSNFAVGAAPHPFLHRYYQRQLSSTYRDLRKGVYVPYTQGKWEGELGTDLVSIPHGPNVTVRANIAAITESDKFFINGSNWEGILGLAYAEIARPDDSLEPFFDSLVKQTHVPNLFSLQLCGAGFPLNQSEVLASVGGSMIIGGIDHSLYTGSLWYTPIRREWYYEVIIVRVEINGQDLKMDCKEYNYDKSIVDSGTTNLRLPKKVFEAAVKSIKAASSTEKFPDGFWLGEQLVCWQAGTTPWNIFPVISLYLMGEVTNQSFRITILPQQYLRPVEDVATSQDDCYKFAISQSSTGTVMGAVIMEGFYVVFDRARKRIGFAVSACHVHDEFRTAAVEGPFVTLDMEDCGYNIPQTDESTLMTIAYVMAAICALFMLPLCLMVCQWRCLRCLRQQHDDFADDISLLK

Structure (SMILES) | EC50 [1, 5] | half-life at 1 uM ([3]; liver microsomes) | IC50 [2] | further results
CC(C)(C)C[C@]1(c2ccc(-c3ccnn3C(F)F)cc2)NC(=N)N([C@H](COC(=O)NC2(C(F)(F)F)CC2)c2ccc(Cl)c(-n3ncnc3C(F)F)c2)C1=O [Compound 212] |  |  |  | EC50 [1, 4]: 11.9 nM; IC50 ([2]; 50 nM recombinant human BACE-1, pH 4.8, read-out: BACE IC50): > 100000 nM
CC(C)(F)C[C@]1(c2ccc(-c3cnn(C(F)F)c3)cc2)NC(=N)N([C@H](COC(=O)NC2(C(F)(F)F)CC2)c2ccc(Cl)c(-n3ncnc3C(F)F)c2)C1=O [Compound 194] | 14.8 nM | ≥ 6.58 h | > 100000 nM | 
CC(C)(C)C[C@]1(c2ccc(-c3cnn(C4CC4)n3)cc2)NC(=N)N([C@H](COC(=O)NC2(C(F)(F)F)CC2)c2ccc(Cl)c(-c3ncnn3C(F)F)c2)C1=O [Compound 146] | 10.3 nM | ≥ 6.58 h | > 100000 nM | 
CC(C)(C)C[C@]1(c2ccc(-c3cnn(S(C)(=O)=O)c3)cc2F)NC(=N)N([C@H](COC(=O)NC2(C(F)(F)F)CC2)c2ccc(Cl)c(-n3ncnc3C(F)F)c2)C1=O [Compound 286] | 9.61 nM |  | > 100000 nM | 
CC(C)(C)C[C@]1(c2ccc(-c3cnn(C(F)F)c3)cc2)NC(=N)N([C@H](COC(=O)NC2(C(F)(F)F)CC2)c2ccc(Cl)c(-c3ncnn3C(F)F)c2)C1=O [Compound 113] | 7.75 nM |  | > 100000 nM | 
CC(C)(C)C[C@]1(c2ccc(-c3cnn(C(F)F)c3)cc2)NC(=N)N([C@H](COC(=O)NCC(F)(F)F)c2ccc(Cl)c(-n3ncnc3C(F)F)c2)C1=O [Compound 218] | 9.89 nM |  | > 100000 nM | 
CC(C)(C)C[C@]1(c2ccc3c(C(F)F)nccc3c2)NC(=N)N([C@H](COC(=O)NC2(C(F)(F)F)CC2)c2ccc(Cl)c(-n3ncnc3C(F)F)c2)C1=O [Compound 348] | 7.46 nM |  | > 100000 nM | 
CC(C)(C)C[C@]1(c2ccc(-c3cnn(C(F)F)c3)cc2)NC(=N)N([C@H](COC(=O)N[C@@H]2CC2(F)F)c2ccc(Cl)c(-n3ncnc3C(F)F)c2)C1=O (single isomer, unassigned) [Compound 335] |  |  | > 100000 nM | EC50 [1, 4]: 5.59 nM
CN(C(=O)OC[C@H](c1ccc(Cl)c(-n2cncn2)c1)N1C(=N)N[C@](CC(C)(C)C)(c2ccc(-c3cnn(C4CC4)c3)cc2)C1=O)C1CC1 [Compound 244] | 7.66 nM |  | > 100000 nM | 
CC(C)(C)C[C@]1(c2ccc(-c3cnn(C(F)F)c3)cc2)NC(=N)N([C@H](COC(=O)NC(C)(C)C(F)F)c2ccc(Cl)c(-c3ncnn3C(F)F)c2)C1=O [Compound 90] | 12.2 nM |  | > 100000 nM | 
CC(C)(C)C[C@]1(c2ccc(-c3cnn(C4CC4)c3)cc2Cl)NC(=N)N([C@H](COC(=O)NC2(C(F)(F)F)CC2)c2ccc(Cl)c(-n3ncnc3C(F)F)c2)C1=O [Compound 317] | 99.1 nM | ≥ 6.58 h |  | 
CC(C)(C)C[C@]1(c2ccc(-n3ccnn3)cc2)NC(=N)N([C@H](COC(=O)NC2(C(F)(F)F)CC2)c2ccc(Cl)c(-n3ncnc3C(F)F)c2)C1=O [Compound 351] | 17.9 nM |  |  | half-life at 1 uM ([3]; human liver microsomes): ≥ 6.58 h
CC(C)(C)C[C@]1(c2ccc(-c3cnn(C(F)F)c3)cc2)NC(=N)N([C@H](COC(=O)N[C@@H]2CC2C(F)(F)F)c2ccc(Cl)c(-n3ncnc3C(F)F)c2)C1=O (single isomer, unassigned) [Compound 331] | 16.4 nM | ≥ 6.58 h |  | 
CC(C)(C[C@]1(c2ccc(-c3cnn(C4CC4)n3)cc2)NC(=N)N([C@H](COC(=O)NC2(C(F)F)CC2)c2ccc(Cl)c(-n3ncnc3C(F)F)c2)C1=O)C(F)(F)F [Compound 271] | 12.6 nM |  | > 100000 nM | 
Cn1c(=O)ccc2cc([C@@]3(CC(C)(C)C)NC(=N)N([C@H](COC(=O)NC4(C(F)(F)F)CC4)c4ccc(Cl)c(-n5ncnc5C(F)F)c4)C3=O)ccc21 [Compound 349] |  |  | > 100000 nM | EC50 ([1]; Human immunodeficiency virus 1, IIIB, MT4, read-out: MT4 EC50 (nM)): 36 nM
[2H]C([2H])([2H])n1cnc(-c2cc([C@@H](COC(=O)NC(C)(C)C(F)F)N3C(=N)N[C@](C[C@]4(C)CC4(F)F)(c4ccc(-c5cnn(C(F)F)c5)cc4)C3=O)ccc2Cl)n1 [Compound 97] | 18.9 nM | ≥ 6.58 h |  | 

Structure (SMILES) | EC50 [1, 5] | half-life at 1 uM ([3]; liver microsomes) | IC50 [2] | further results
CC(C)(F)C[C@]1(c2ccc(-c3cnn(C(F)F)c3)cc2)NC(=N)N([C@H](COC(=O)NC(C)(C)C(F)F)c2ccc(Cl)c(-c3ncnn3C(F)F)c2)C1=O [Compound 129] | 27.3 nM | ≥ 6.58 h |  | 
C[C@H](NC(=O)OC[C@H](c1ccc(Cl)c(-c2ncnn2C(F)F)c1)N1C(=N)N[C@](CC(C)(C)C(F)(F)F)(c2ccc(-c3cnn(C4CC4)n3)cc2)C1=O)C(F)(F)F [Compound 153] | 14 nM | ≥ 6.58 h |  | 
CC(C)(C)C[C@]1(c2ccc(-c3cnn(S(C)(=O)=O)c3)c(F)c2)NC(=N)N([C@H](COC(=O)NC2(C(F)F)CC2)c2ccc(Cl)c(-n3ncnc3C(F)F)c2)C1=O [Compound 303] | 11.2 nM | ≥ 6.58 h |  | 
CC(C)(C)C[C@]1(c2ccc(-c3cn(C4CC4)nn3)c(F)c2)NC(=N)N([C@H](COC(=O)NC2(C(F)(F)F)CC2)c2ccc(Cl)c(-n3ncnc3C(F)F)c2)C1=O [Compound 352] | 10.9 nM | ≥ 6.58 h |  | 
CC(C)(C)C[C@]1(c2ccc(-c3cnn(C4CC4)n3)cc2F)NC(=N)N([C@H](COC(=O)NC2(C(F)(F)F)CC2)c2ccc(Cl)c(-n3ncnc3C(F)F)c2)C1=O [Compound 224] | 19.5 nM | ≥ 6.58 h |  | 
CC(C)(C)C[C@]1(c2ccc3nc(C#Cc4ccccc4)ccc3c2)NC(=N)N([C@H](COC(=O)NC2(C(F)(F)F)CC2)c2ccc(Cl)c(-n3ncnc3C(F)F)c2)C1=O (stereo in doubt) [Compound 360] | 79.9 nM | ≥ 6.58 h |  | 
CC(C)(C)C[C@]1(c2ccc(-c3cnn(C(F)F)c3)cc2)NC(=N)N([C@H](COC(=O)NC2(C(F)(F)F)CC2)c2ccc(Cl)c(-n3ncnc3C(F)F)c2)C1=O [Compound 177] | 9.81 nM |  | > 100000 nM | 
CC(C)(C)C[C@]1(c2ccc(-c3cccc(S(C)(=O)=O)c3)c(F)c2)NC(=N)N([C@H](COC(=O)NC2(C(F)(F)F)CC2)c2ccc(Cl)c(-n3ncnc3C(F)F)c2)C1=O [Compound 312] | 27.8 nM | ≥ 6.58 h |  | 
CC(C)(C)C[C@]1(c2ccc(-c3ncccn3)cc2)NC(=N)N([C@H](COC(=O)NC2(C(F)(F)F)CC2)c2ccc(Cl)c(-c3ncn[nH]3)c2)C1=O [Compound 105] | 36.7 nM | ≥ 6.58 h |  | 
CC1(NC(=O)OC[C@H](c2ccc(Cl)c(-c3ncn[nH]3)c2)N2C(=N)N[C@](CC(C)(C)C(F)(F)F)(c3ccc(-c4cnn(C(F)F)c4)cc3)C2=O)CC1 [Compound 32] | 69.2 nM |  | > 100000 nM | 
[H]/N=C1\N[C@](CC(C)(C)C)(c2ccc(-c3cnn(C(F)F)c3)cc2)C(=O)N1[C@H](COC(=O)NC1CC1)c1ccc(Cl)c(-c2ncn(C(F)F)n2)c1 [Compound 34] | 38.7 nM | ≥ 6.58 h |  | 
CC(C)(C)C[C@]1(c2ccc(-c3cnn(C(F)F)c3)cc2F)NC(=N)N([C@H](COC(=O)NC2(C(F)(F)F)CC2)c2ccc(Cl)c(-c3ncn[nH]3)c2)C1=O [Compound 110] | 96 nM | ≥ 6.58 h |  | 
CC(C)(C)C[C@]1(c2ccc(-c3cnn(C(F)F)c3)cc2)NC(=N)N([C@H](COC(=O)NC(C)(C)C(F)F)c2ccc(Cl)c(-c3nccn3C(F)F)c2)C1=O [Compound 89] | 34.4 nM | ≥ 6.58 h |  | 
CC(C)(C)C[C@]1(c2ccc(-c3cnn(C(F)F)c3)cc2)NC(=N)N([C@H](COC(=O)NC(C)(C)C(F)F)c2ccc(Cl)c(-n3ncnc3C(F)F)c2)C1=O [Compound 185] | 12.6 nM |  | > 100000 nM | 
CC(C)(F)C[C@]1(c2ccc(-c3cnn(C(F)F)c3)cc2)NC(=N)N([C@H](COC(=O)NC2(C(F)(F)F)CC2)c2ccc(Cl)c(-c3ncnn3C(F)F)c2)C1=O [Compound 134] | 18.5 nM | ≥ 6.58 h |  | 

Source: US10774053B2, “HIV protease inhibitors” (Gilead Sciences, Inc., priority 2017, dated 2020)
